Measured values published in patent publication US11534441B2, “MAP4K1 inhibitors” (Blueprint Medicines Corporation, priority 2020, dated 2022).

Columns and labels:
MAP4K1 (HPK1) = MAP4K1 (HPK1) (Homo sapiens (Human), UniProt Q92918); assay: MAP4K1 (HPK1) biochemical enzymatic activity, electrophoretic mobility shift (EZReader 2), ATP at APPKM (26 μM)
Text: MAP4K1 (HPK1) and relevant off-target enzymatic activity was monitored using the Perkin Elmer electrophoretic mobility shift technology platform—the EZReader 2. […] Within the linear, steady-state phase of the kinase enzymatic reaction, the mixed pool of phosphorylated (product) and non-phosphorylated (substrate) peptides was passed through the microfluidic system of the PerkinElmer EZ Reader 2, under an applied electric potential difference. The presence of the phosphate group on the product peptide provided a difference in mass and charge between that of the substrate peptide, resulting in a separation of the substrate and product pools in the sample (Perrin et al. 2010). As the product and substrate peptide mixture passes the lasers within the instrument, these pools are detected (λex=488 nm, λent=568 nm) and resolved as separate peaks. The ratio between these peaks reflects the activity of the compound at that concentration, in that well, under those conditions.
Inhibitors were dissolved in 100% DMSO at a stock concentration of 10 mM. A 100×, 10-point, 4-fold serial dilution of each inhibitor was created in 100% DMSO either manually or on a Hamilton STAR liquid handler, starting at a relevant concentration, usually 1 mM. A volume of 0.130 μL of each concentration was transferred to the relevant wells of a 384-well plate (Greiner 781 201) in duplicate using a TTPLabtech Mosquito nano-litre dispenser. Using a Multidrop Combi, the remaining constituents of the kinase reaction were added to the 130 nL of dosed compound as follows (see table below for final reaction details):
Enzyme activity assays at the ^APPKM for ATP or 1 mM ATP: In each well of a 384-well plate, 0.1-15 nM of untreated enzyme was incubated in a total of 13 μL of buffer (100 mM HEPES pH 7.5, 0.015% Brij 35, 10 mM MgCl2, 1 mM DTT) with 1.5 μM fluorescent peptid and 20-1000 μM ATP, at 25° C., for 60-180 minutes in the presence or absence of a dosed concentration series of compound (1% DMSO final concentration). The kinase reactions were stopped by the addition of 70 μl of Stop buffer (100 mM HEPES pH 7.5, 0.015% Brij 35, 35 mM EDTA and 0.2% of Coating Reagent 3 (Caliper Lifesciences)). The plates were read on a Caliper EZReader 2 as described above.

expanded CD3+ T cells = assay: T cell enhancement of cytokines: IL2 measurement (HTRF) in expanded CD3+ T cells stimulated with anti-CD3/anti-CD28; type: cell-based, human; details: IL-2 measurement
Description: T cells are isolated from whole blood of healthy donors by immunomagnetic negative selection following manufacture's protocol (StemCell Technologies, human T cell isolation kit). Purity of isolated cells is assessed by flow cytometry and yields 95-98% CD3^+ T cells. For expansion of T cells, 1×10^6 cells/well are plated in serum free cell expansion media (ThermoFisher) containing 30 U of recombinant human IL2 (R&D) and stimulated with 25 ul of CD3/CD28 beads (Invitrogen) in 24 well plates for 3-4 days. T cells are then expanded in 175 cm flasks and maintained at a cell density of 1 to 2.5×10^6 cells/ml days by addition of ⅔ of fresh media every 2-3 days. After 10-14 days, cells are frozen in BamBanker freezing media (Thermo) and stored in liquid nitrogen.
For IL2 measurement, expanded CD3^+ T cells are dispensed at 100K cells/well (cultured in X-VIVO 10 Serum-free media) and are stimulated with plate-bound anti-CD3 and soluble anti-CD28 in the presence of vehicle or compound of the disclosure at various concentrations for 24 h. As outlined in the manufacturer's protocol (Cisbio), 16 μL of conditioned media is transferred to a white 384-well low volume plate. Following a 24 h incubation with the anti-IL2 antibodies, the homogenous time resolved fluorescence (HTRF) is measured.

[1] = Homo sapiens, T-cell, class designation
[2] = Homo sapiens, T-cell, numeric value

Sequence of MAP4K1 (HPK1) (Q92918 whole entry): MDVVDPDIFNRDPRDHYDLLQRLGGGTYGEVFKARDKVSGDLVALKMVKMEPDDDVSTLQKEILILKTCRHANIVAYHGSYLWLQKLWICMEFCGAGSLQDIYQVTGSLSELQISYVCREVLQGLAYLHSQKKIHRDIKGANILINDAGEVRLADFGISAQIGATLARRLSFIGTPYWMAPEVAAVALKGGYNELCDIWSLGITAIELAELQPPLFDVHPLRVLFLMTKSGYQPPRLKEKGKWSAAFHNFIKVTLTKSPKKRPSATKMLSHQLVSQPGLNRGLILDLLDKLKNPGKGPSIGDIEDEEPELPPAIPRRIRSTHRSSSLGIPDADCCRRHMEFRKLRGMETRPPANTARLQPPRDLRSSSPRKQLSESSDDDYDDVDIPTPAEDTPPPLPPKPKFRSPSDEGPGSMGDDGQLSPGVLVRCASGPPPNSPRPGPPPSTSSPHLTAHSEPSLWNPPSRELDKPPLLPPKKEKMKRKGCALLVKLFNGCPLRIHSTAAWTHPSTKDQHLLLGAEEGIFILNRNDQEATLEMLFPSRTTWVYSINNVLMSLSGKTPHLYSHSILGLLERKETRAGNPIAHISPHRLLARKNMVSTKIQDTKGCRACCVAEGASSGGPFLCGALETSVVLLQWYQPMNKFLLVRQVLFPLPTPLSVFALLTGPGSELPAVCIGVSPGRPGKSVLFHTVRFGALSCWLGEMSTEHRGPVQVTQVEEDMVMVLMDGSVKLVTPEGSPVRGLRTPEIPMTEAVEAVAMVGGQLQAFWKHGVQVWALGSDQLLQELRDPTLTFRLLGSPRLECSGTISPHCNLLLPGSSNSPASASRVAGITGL

| Compound | IC50 (MAP4K1 (HPK1); class designation) | IC50 (MAP4K1 (HPK1); numeric value) | EC50 (expanded CD3+ T cells; class designation) | EC50 (expanded CD3+ T cells; numeric value) | EC50 (expanded CD3+ T cells; [1]) | EC50 (expanded CD3+ T cells; [2]) |
| --- | --- | --- | --- | --- | --- | --- |
| COc1ncc(C(C)(C)N)c2cc(Nc3ccc4c(n3)[C@@H](C)COC4=O)ncc12 (single isomer, unassigned) [Compound 22] | 0.31 to 1 nM | 0.5 nM | 35.1 to 45 nM | 36.6 nM | – | – |
| COc1ncc(C(C)(C)N)c2cc(Nc3ccc4c(n3)[C@@H](C)COC4=O)ncc12 (single isomer, unassigned) [Compound 23] | < 0.3 nM | 0.11 nM | < 35 nM | 4.9 nM | – | – |
| COc1ncc(C(C)(C)N)c2cc(Nc3ccc4c(n3)C[C@@H](C)OC4=O)ncc12 (single isomer, unassigned) [Compound 24] | 0.31 to 1 nM | 0.47 nM | < 35 nM | 11.3 nM | – | – |
| COc1ncc(C(C)(C)N)c2cc(Nc3ccc4c(n3)C[C@H](C)OC4=O)ncc12 (single isomer, unassigned) [Compound 25] | < 0.3 nM | 0.29 nM | < 35 nM | 3.3 nM | – | – |
| COc1ncc(C(C)(C)N)c2cc(Nc3ccc4c(n3)[C@@H](C)[C@@H](C)OC4=O)ncc12 (single isomer, unassigned) [Compound 39] | 0.31 to 1 nM | 0.85 nM | < 35 nM | 16.2 nM | – | – |
| COc1ncc(C(C)(C)N)c2cc(Nc3ccc4c(n3)[C@H](C)[C@H](C)OC4=O)ncc12 (single isomer, unassigned) [Compound 40] | < 0.3 nM | 0.15 nM | < 35 nM | 4 nM | – | – |
| CCOc1ncc(C(C)(C)N)c2cc(Nc3ccc4c(n3)C[C@H](C)OC4=O)ncc12 (single isomer, unassigned) [Compound 41] | 0.31 to 1 nM | 0.57 nM | < 35 nM | 22.7 nM | – | – |
| CCOc1ncc(C(C)(C)N)c2cc(Nc3ccc4c(n3)C[C@@H](C)OC4=O)ncc12 (single isomer, unassigned) [Compound 42] | 0.31 to 1 nM | 0.86 nM | < 35 nM | 13.6 nM | – | – |
| CCOc1ncc(C(C)(C)N)c2cc(Nc3ccc4c(n3)[C@@H](C)COC4=O)ncc12 (single isomer, unassigned) [Compound 43] | < 0.3 nM | 0.23 nM | < 35 nM | 8.3 nM | – | – |
| CCOc1ncc(C(C)(C)N)c2cc(Nc3ccc4c(n3)[C@H](C)COC4=O)ncc12 (single isomer, unassigned) [Compound 44] | 1.1 to 10 nM | 1.2 nM | < 35 nM | 22 nM | – | – |
| CCOc1ncc(C(C)(C)N)c2cc(Nc3ccc4c(n3)[C@@H](C)[C@@H](C)OC4=O)ncc12 (single isomer, unassigned) [Compound 59] | 1.1 to 10 nM | 3.35 nM | > 55 nM | 56.7 nM | – | – |
| CCOc1ncc(C(C)(C)N)c2cc(Nc3ccc4c(n3)[C@H](C)[C@H](C)OC4=O)ncc12 (single isomer, unassigned) [Compound 60] | < 0.3 nM | 0.18 nM | < 35 nM | 10.3 nM | – | – |
| CC[C@@](C)(N)c1cnc(OC)c2cnc(Nc3ccc4c(n3)CC(C)(C)OC4=O)cc12 (single isomer, unassigned) [Compound 61] | < 0.3 nM | 0.15 nM | < 35 nM | 3.5 nM | – | – |
| C[C@@H]1OC(=O)c2ccc(Nc3cc4c([C@](C)(N)C5CC5)cnc(OC5CC5)c4cn3)nc2[C@H]1C (single isomer, unassigned) [Compound 75] | – | 0.09 nM | – | – | < 35 nM | 7.3 nM |
| C[C@@H]1c2nc(Nc3cc4c([C@](C)(N)C5CC5)ncc(OC5CC5)c4cn3)ccc2C(=O)OC1(C)C (single isomer, unassigned) [Compound 76] | – | 0.12 nM | – | – | < 35 nM | 6.5 nM |
| C[C@](N)(c1cnc(OC2CC2)c2cnc(Nc3ccc4c(n3)CCNC4=O)cc12)C1CC1 (single isomer, unassigned) [Compound 106] | – | 0.61 nM | – | – | 35.1 to 45 nM | 41.3 nM |

| Compound | IC50 (MAP4K1 (HPK1); class designation) | IC50 (MAP4K1 (HPK1); numeric value) | EC50 (expanded CD3+ T cells; class designation) | EC50 (expanded CD3+ T cells; numeric value) | EC50 (expanded CD3+ T cells; [1]) | EC50 (expanded CD3+ T cells; [2]) |
| --- | --- | --- | --- | --- | --- | --- |
| C[C@H]1COC(=O)c2ccc(Nc3cc4c([C@](C)(N)C5CC5)cnc(OC5CC5)c4cn3)nc21 (single isomer, unassigned) [Compound 117] | < 0.3 nM | – | – | – | < 35 nM | 16 nM |
| C[C@@H]1COC(=O)c2ccc(Nc3cc4c([C@](C)(N)C5CC5)cnc(OC5CC5)c4cn3)nc21 (single isomer, unassigned) [Compound 118] | 1.1 to 10 nM | 1.28 nM | > 55 nM | 81.7 nM | – | – |
| CC[C@@](C)(N)c1cnc(OC2CC2)c2cnc(Nc3ccc4c(n3)CC(C)(C)OC4=O)cc12 (single isomer, unassigned) [Compound 132] | < 0.3 nM | 0.18 nM | < 35 nM | 12.9 nM | – | – |
| C[C@](N)(c1cnc(OC2CC2)c2cnc(Nc3ccc4c(n3)C3(CC3)COC4=O)cc12)C1CC1 (single isomer, unassigned) [Compound 146] | – | 0.25 nM | – | – | > 55 nM | 60.4 nM |
| C[C@](N)(c1cnc(OC2CC2)c2cnc(Nc3ccc4c(n3)CC3(CC3)OC4=O)cc12)C1CC1 (single isomer, unassigned) [Compound 147] | – | 0.27 nM | – | – | 35.1 to 45 nM | 45.2 nM |
| CC1(C)COC(=O)c2ccc(Nc3cc4c([C@](C)(N)C5CC5)cnc(OC5CC5)c4cn3)nc21 (single isomer, unassigned) [Compound 151] | – | 0.22 nM | – | – | < 35 nM | 27.3 nM |
| CC[C@]1(C)OC(=O)c2ccc(Nc3cc4c([C@](C)(N)C5CC5)cnc(OC5CC5)c4cn3)nc21 (single isomer, unassigned) [Compound 152] | 0.31 to 1 nM | 0.42 nM | > 55 nM | 54.4 nM | – | – |
| C[C@@H]1c2nc(Nc3cc4c([C@](C)(N)C5CC5)cnc(OC5CC5)c4cn3)ccc2C(=O)O[C@@H]1C (single isomer, unassigned) [Compound 154] | < 0.3 nM | 0.08 nM | < 35 nM | 11 nM | – | – |
| C[C@@H]1OC(=O)c2ccc(Nc3cc4c([C@](C)(N)C5CC5)cnc(OC5CC5)c4cn3)nc2[C@@H]1C (single isomer, unassigned) [Compound 155] | 0.31 to 1 nM | 0.97 nM | > 55 nM | 88.4 nM | – | – |
| C[C@H]1OC(=O)c2ccc(Nc3cc4c([C@](C)(N)C5CC5)cnc(OC5CC5)c4cn3)nc2C12CC2 (single isomer, unassigned) [Compound 167] | < 0.3 nM | 0.05 nM | < 35 nM | 9.4 nM | – | – |
| C[C@H]1OC(=O)c2ccc(Nc3cc4c([C@](C)(N)C5CC5)cnc(OC5CC5)c4cn3)nc2C1(C)C (single isomer, unassigned) [Compound 171] | < 0.3 nM | 0.07 nM | < 35 nM | 27.6 nM | – | – |
| CC[C@@](C)(N)c1cnc(OCC(F)(F)F)c2cnc(Nc3ccc4c(n3)[C@@H](C)[C@H](C)OC4=O)cc12 (single isomer, unassigned) [Compound 181] | < 0.3 nM | – | – | – | < 35 nM | 15.1 nM |
| CC[C@@H](N)c1cnc(C)c2cnc(Nc3ccc4c(n3)[C@@H](C)[C@H](C)OC4=O)cc12 [Compound 202] | 0.31 to 1 nM | 0.62 nM | – | – | – | – |
| CC[C@@H](N)c1cnc(OC)c2cnc(Nc3ccc4c(n3)[C@@H](C)[C@H](C)OC4=O)cc12 [Compound 203] | 0.31 to 1 nM | 0.5 nM | – | – | – | – |
| COC[C@@](C)(N)c1cnc(C)c2cnc(Nc3ccc4c(n3)[C@@H](C)C(C)(C)OC4=O)cc12 [Compound 206] | < 0.3 nM | 0.19 nM | – | – | – | – |
| CC[C@@H](N)c1ccc(Cl)c2cnc(Nc3ccc4c(n3)[C@@H](C)C(C)(C)OC4=O)cc12 [Compound 209] | 0.31 to 1 nM | – | – | – | – | – |
